Test results: patent publication US20160101148A1, “TREATMENT AND PREVENTION OF BACTERIAL SKIN INFECTIONS USING ORITAVANCIN” (priority 2013, published 2016)
In brackets after ≈: the same amount, converted by molar mass.

Key:
MRSA isolates = MRSA isolates in a surveillance study (Arhin et al., 2009); cited from earlier work
[1] = SOLO I Phase 3 trial, safety assessments (safety population); type: in vivo, human; conditions: for Patients who died during the study: all determined unrelated to study drug; for Infusion site reaction AEs / Pruritus AEs: post-hoc analysis; for Incidence of diarrhea / Incidence of headache / Incidence of nausea / Incidence of vomiting: safety population
From the text: The study design was consistent with current guidelines from FDA (U.S. Food and Drug Administration. Guidance for Industry Acute Bacterial Skin and Skin Structure Infections: Developing Drugs for Treatment (DRAFT GUIDANCE). Available via Internet at the URL containing: fda.gov/downloads/Drugs/GuidanceComplianceRegulatoryInformation/Guidances/ucm071185.p df) and EMA (European Medicines Agency Committee for Medicinal Products for Human Use. Addendum to the note for guidance on evaluation of medicinal products indicated for treatment of bacterial infections (CHMP/EWP/558/95 REV 2) to address indication-specific clinical data (draft). 2012. Available via Internet at the URL containing: ema.europa.eu/docs/en_GB/document_library/Scientific_guideline/2012/07/WC500129443.pdf) and Foundation for National Institutes of Health guidance was considered for analyses (Talbot G H etl. Clin Infect Dis. 2012. 55(8):1114-1121). The protocol was approved by institutional review boards/ethics committees and all patients provided written informed consent. The study was conducted from January 2011 through October 2012 at 46 study centers in Mexico, Spain, Germany, Romania, Russia, Ukraine, Israel, India, and the United States. […] Aztreonam and metronidazole were permitted for gram-negative and anaerobic cover, respectively.
Safety assessments (Safety Population) included vital signs, electrocardiogram (ECG), clinical chemistry and hematology parameters, reporting of adverse events (AEs) and serious adverse events (SAEs). Treatment-emergent adverse events (TEAEs) were defined as AEs with onset or worsening severity at or after the first dose of study drug through the Safety Follow-up Visit (Day 60+7 days).
For safety assessments, descriptive analyses were performed in the safety population for all safety parameters by treatment group.
The intent-to-treat (ITT) population included all patients randomized into the study. The modified intent-to-treat (mITT) was the primary population for all the efficacy analyses and included all randomized patients who received any study drug. The clinically evaluable (CE) population consisted of all mITT patients who met the inclusion/exclusion criteria, received the full-course of randomized study treatment (for a minimum of 7 days), and had investigator assessment for clinical cure at PTE. The CE population was used to confirm the efficacy analyses. The microbiologically ITT (MicroITT) population consisted of all mITT patients with baseline gram-positive pathogen(s) known to cause ABSSSI and it was used for the secondary efficacy analyses. The microbiologically evaluable (MicroE) population was used to confirm the secondary efficacy analyses and consisted of all patients who were in both the MicroITT and CE populations. The safety population was the primary population for all the safety analyses, and consisted of all patients who were dosed with study drug, irrespective of randomization. Treatment classification was based on the actual treatment received.

Row | Compound | Cellulitis SAEs considered new events [1] | Discontinuation of study drug due to cellulitis [1] [patients] | Frequency of SAEs [1] [%] | Histamine-like reactions (Red Man syndrome) [1] | Proportion of patients experiencing a TEAE that led to discontinuation of the study drug [1] [%] | Skin and subcutaneous tissue adverse events [1] [%] | Patients who died during the study [1] | Infusion site reaction AEs [1] [%] | Pruritus AEs [1] [%] | Incidence of diarrhea [1] [%] | Incidence of headache [1] [%] | Incidence of nausea [1] [%] | Incidence of vomiting [1] [%] | other results
1 | CN[C@H](CC(C)C)C(=O)N[C@H]1C(=O)N[C@@H](CC(N)=O)C(=O)N[C@H]2C(=O)N[C@H]3C(=O)N[C@H](C(=O)N[C@H](C(=O)O)c4cc(O)cc(O)c4-c4cc3ccc4O)[C@H](O[C@H]3C[C@](C)(N)[C@@H](O)[C@H](C)O3)c3ccc(c(Cl)c3)Oc3cc2cc(c3O[C@@H]2O[C@H](CO)[C@@H](O)[C@H](O)[C@H]2O[C@H]2C[C@](C)(NCc3ccc(-c4ccc(Cl)cc4)cc3)[C@@H](O)[C@H](C)O2)Oc2ccc(cc2Cl)[C@H]1O [Oritavancin, N^DISACC-(4-(4-chlorophenyl)benzyl)A82846B] | 2 | 2 | 7.4 | No histamine-like reactions occurred | 3.8 | 11.6 | one | 4.0 | 3.4 | 4.9 | 7.2 | 11.0 | 4.9 | MIC90 (MRSA isolates): 0.12 µg/mL (≈ 0.0669 µM); Overall safety and tolerability ([1]; single 1200 mg dose): safe and well-tolerated
2 | CN[C@H](CC(C)C)C(=O)N[C@H]1C(=O)N[C@@H](CC(N)=O)C(=O)N[C@H]2C(=O)N[C@H]3C(=O)N[C@H](C(=O)N[C@H](C(=O)O)c4cc(O)cc(O)c4-c4cc3ccc4O)[C@H](O)c3ccc(c(Cl)c3)Oc3cc2cc(c3O[C@@H]2O[C@H](CO)[C@@H](O)[C@H](O)[C@H]2O[C@H]2C[C@](C)(N)[C@H](O)[C@H](C)O2)Oc2ccc(cc2Cl)[C@H]1O [Vancomycin, vancomycin] | 4 | 3 | 7.3 | 2 patients | 5.8 | 19.1 | two | 7.1 | 9.1 | 3.5 | 7.9 | 8.9 | 3.7 | Discontinuation of study drug due to drug hypersensitivity [1]: 2 patients; Discontinuation of study drug due to hypersensitivity [1]: 5 patients; Discontinuation of study drug due to pruritus [1]: 2 patients; Discontinuation of study drug due to rash [1]: 2 patients; Discontinuation of study drug due to sepsis [1]: 2 patients; Discontinuation of study drug due to skin bacterial infection [1]: 2 patients
